A short description of data set [1]: physchem. The following applies: buffer, pH 7.4.
Description: Lipophilicity, logD of compound at pH 7.4 by HPLC analysis
Data set [2] in a line: Lipophilicity, logD of the compound at pH 7.4. Format: physicochemical. The following applies: buffer.
For data set [3], the target named is T1, Translocator protein (Homo sapiens, UniProt P30536).
Description: Binding affinity to human mitochondrial TSPO
Data set [4] concerns the target Translocator protein (Rattus norvegicus, UniProt P16257).
Description: Binding affinity to rat TSPO receptor assessed as inhibition constant
Data set [5] has as its target T1, Translocator protein. This is another data set of the same source.
Description: Binding affinity to human TSPO assessed as inhibition constant
The target of another data set is Albumin (Macaca fascicularis, UniProt A2V9Z4).
Chain of Albumin (A2V9Z4 whole entry): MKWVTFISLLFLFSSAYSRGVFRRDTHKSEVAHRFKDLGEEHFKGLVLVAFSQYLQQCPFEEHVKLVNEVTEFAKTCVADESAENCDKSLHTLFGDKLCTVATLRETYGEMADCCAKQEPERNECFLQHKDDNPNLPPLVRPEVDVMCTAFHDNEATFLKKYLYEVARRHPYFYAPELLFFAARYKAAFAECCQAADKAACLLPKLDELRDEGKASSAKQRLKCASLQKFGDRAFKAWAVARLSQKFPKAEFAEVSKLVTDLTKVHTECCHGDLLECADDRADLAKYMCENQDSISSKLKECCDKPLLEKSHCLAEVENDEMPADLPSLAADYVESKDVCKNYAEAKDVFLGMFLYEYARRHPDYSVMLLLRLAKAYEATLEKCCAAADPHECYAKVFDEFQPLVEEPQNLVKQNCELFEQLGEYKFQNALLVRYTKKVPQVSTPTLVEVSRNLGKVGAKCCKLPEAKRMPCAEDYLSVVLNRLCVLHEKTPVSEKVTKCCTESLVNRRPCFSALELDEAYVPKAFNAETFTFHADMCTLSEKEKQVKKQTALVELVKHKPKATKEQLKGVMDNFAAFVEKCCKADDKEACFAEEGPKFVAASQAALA
A short description of data set [6]: physchem. The following applies: buffer, pH 6.8.
Description: Lipophilicity, logD of compound at pH 6.8

Broadly, the logD is the decadic logarithm of the distribution of all forms, ionised or not, between an organic phase and buffer at a given pH. A high value points to higher lipophilicity. In general, Ki refers to the equilibrium dissociation constant of an inhibitor or competing ligand from its target.

T1 sequence (P30536 whole entry): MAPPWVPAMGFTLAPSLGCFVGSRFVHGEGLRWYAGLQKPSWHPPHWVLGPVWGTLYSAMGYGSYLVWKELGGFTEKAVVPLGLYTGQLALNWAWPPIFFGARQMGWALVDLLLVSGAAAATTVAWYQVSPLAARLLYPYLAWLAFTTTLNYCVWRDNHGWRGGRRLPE
Chain of Translocator protein (Rattus norvegicus, UniProt P16257) (P16257 whole entry, looked up): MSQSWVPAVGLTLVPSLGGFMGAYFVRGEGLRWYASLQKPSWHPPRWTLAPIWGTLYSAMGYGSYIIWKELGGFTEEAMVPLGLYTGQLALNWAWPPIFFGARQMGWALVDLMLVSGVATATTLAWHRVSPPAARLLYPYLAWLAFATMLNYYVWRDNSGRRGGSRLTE
Description for Albumin: Binding affinity to monkey albumin

On to `CC[C@@H](C)N([11CH3])C(=O)c1cc2ccccc2c(-c2ccccc2Cl)n1`, for which the logD in the data set “physchem [1]” is 3.97.
In data set [2], `CC(=O)N(Cc1ccccc1O[11CH3])c1cnccc1Oc1ccccc1` yielded a logD of 3.01. In addition, on Translocator protein [3], the Ki was 2200 pM.
The compound `COc1ccc(OCC[18F])c(CN(C(C)=O)c2cc(F)ccc2Oc2ccccc2)c1` had a logD in “physchem [1]” of 3.81.
As to `COc1ccccc1CN(C(=O)C[18F])c1cnccc1Oc1ccccc1`, the Ki at Translocator protein [4] turned out to be 180 pM; at Translocator protein [5], 997 pM; on Albumin it was 300 pM. In the data set “physchem [6]”, the logD came to 4.01.
Compound `CCCN(CCC)C(=O)Cc1c(-c2ccc(OCC[18F])cc2)nc2c(Cl)cc(Cl)cn12` showed a logD in the data set “physchem [1]” of 3.

(Values after ChEMBL document CHEMBL5344430, “Targeting the Translocator Protein (18 kDa) in Cardiac Diseases: State of the Art and Future Opportunities” (J Med Chem, 2024).)
